From ChEMBL document CHEMBL2074152, “Structural determinants of substrates for the prostaglandin transporter PGT” (Mol Pharmacol, 1996) come the findings set out here.

Molecules are shown by their SMILES.

The experiment addresses Solute carrier organic anion transporter family member 2A1 (Rattus norvegicus, UniProt Q00910). In words: TP_TRANSPORTER: inhibition of PGE2 uptake in PGT-expressing HeLa cells. It is filed as functional, cell-based.
With `CCCCC[C@H](O)/C=C/[C@@H]1[C@@H](C/C=C\CCCC(=O)O)[C@@H]2C[C@H]1OO2` [PROSTAGLANDIN H2], the Ki worked out at 38.2 nM.

For `CCCCC[C@H](O)/C=C/C1=C(CCCCCCC(=O)O)C(=O)CC1` [PROSTAGLANDIN B1], the Ki came out at 71.2 nM.

The molecule `CCCCC[C@H](O)/C=C/[C@H]1C=CC(=O)[C@@H]1CCCCCCC(=O)O` [PROSTAGLANDIN A1] returned a Ki of 286 nM.

As to `CCCCC[C@H](O)/C=C/[C@H]1C(=O)C[C@H](O)[C@@H]1CCCCCCC(=O)O` [PROSTAGLANDIN D1], the affinity, expressed as Ki, was 162 nM.

One may read the Ki as a dissociation constant, usually derived from enzyme kinetics or from competition with a known ligand.
